{"source": "patent US20250340519A1", "about": "“RADIOLABELLED COMPOUND” (OXFORD UNIVERSITY INNOVATION LIMITED, priority 2018, published 2025)", "key": {"[1]": {"test": "Ex vivo biodistribution in naïve CBA/Carl mice", "settings": "1 h p.i., individual animals", "method": "(§1) Dynamic PET/CT images were acquired following an intravenous bolus administration of [^18F]-olaparib. Biodistribution studies, where selected tissues were harvested, were performed 1 h post injection. Some animals were also administered an excess of cold, unlabelled olaparib for evaluating the specificity of tumour uptake. EF5, a hypoxia-selective marker, was injected 2 h before culling of the animal. Digital autoradiography was performed on tumour sections. Image analysis was performed using PMOD.\n(§2) Dynamic PET/CT images were acquired using a VECTor ^4CT integrated PET/CT system. Mice were anaesthetised by 4% isoflurane gas (0.5 L/min O2) and placed on a custom-built imaging cradle in a prone position. Animals mice were intravenously injected with [^18F]-olaparib or (3-5 MBq, 8-11 GBq/μmol, through a tail vein catheter, and dynamic imaging was performed over 45-60 min after radiolabelled compound administration. PET acquisition (150 s per frame, using list mode acquisition) using an ultra-high resolution rat/mouse 1.8 mm collimator, followed by a cone-beam CT scan (55 kV, 0.19 mA) for anatomical reference and attenuation correction. Anaesthesia was maintained at 2.5% isoflurane throughout the duration of the image acquisition. PET images were reconstructed using U-SPECT-Rec3.22 software (MILabs, Utrecht, The Netherlands), applying a pixel-based algorithm with 8 subsets, 6 iterations and 0.8 mm voxel size for ^18F (energy window settings 477.9-584.1 keV).\n(§3) After PET/CT image acquisition, animals were euthanized by cervical dislocation and selected organs, tissues and blood were removed. The amount of radioactivity in each organ was measured using a 2480 WIZARD^2 gamma counter (PerkinElmer). Counts per minute were converted into MBq using a calibration curve generated from known standards. Values were decay-corrected to the time of injection, and the percentage of the injected dose per gram (% ID/g) of each tissue was calculated."}, "[2]": {"tested_on": "Capan-1 xenograft", "test": "Ex vivo biodistribution in Capan-1 xenograft bearing mice", "settings": "for Ex vivo biodistribution Bone / Ex vivo biodistribution Kidney / Ex vivo biodistribution Large intestine / Ex vivo biodistribution Liver / Ex vivo biodistribution Muscle / Ex vivo biodistribution Pancreas / Ex vivo biodistribution Skin / Ex vivo biodistribution Small intestine / Ex vivo biodistribution Spleen / Ex vivo biodistribution Stomach: Capan-1 xenograft mice, 1 h p.i., individual animals; for tumour uptake (group mean): Capan-1 xenografts", "method": "All animal procedures were performed in accordance with the UK Animals (Scientific Procedures) Act 1986 and with local ethical committee approval. Animals were housed in IVC cages in sex-matched groups up to 5 per cage, in an artificial day-night cycle facility, with ad libitum access to food and water. Tumour xenografts or allografts were generated by subcutaneous injection of PANC-1 or Capan-1 cell suspensions in the hind flank of balb/c nu/nu animals. CaNT xenografts were generated by harvesting CaNT tumours from donor animals, and injecting a tumour homogenate subcutaneously in the flank of wild type CBA/Carl mice. Tumours were irradiated (10 Gy, 2 Gy/min) using a 300 kV X-ray device.\nas §1\nCells were harvested using trypsin, washed twice using PBS, and reconstituted in DMEM. Panc-1 or Capan-1 xenograft tumours were established in the right hind flank of female NOD/SCID mice (Charles River, UK) by subcutaneous injection of 1×10^6 cells in PBS:matrigel (150 μL). Tumour volumes (V) were calculated after calliper measurement using the following equation: V=(a^2×b)/2, where a is the width of the tumour and b the length (small and large diameters, respectively). The individual relative tumour volume (RTV) was defined as Vt/Vo, where Vt is the volume at a given time and Vo at the start of treatment. Animals were entered in in vivo studies when their tumour was at least 200 mm^3.\nTwo hours prior to PET/CT imaging, animals were exposed to X-irradiation of the tumour (10 Gy or sham) (see schedule in FIG. 13). Radiation was delivered using a Gulmay 320 kV X-irradiator; 2.0 Gy/min. Anaesthesia was maintained at 2.5% isoflurane throughout the duration of the irradiation, and animals were allowed to recover. To study the relationship of PARP1 expression, ^18F-olaparib uptake and hypoxia, animals were administered 0.6 μg in 200 μL (0.9% saline) intraperitoneally, one hour prior to PET/CT imaging. Naïve CBA/Carl mice, not bearing tumours, were not irradiated, nor was EF5 administered.\nas §2, §3"}, "[3]": {"test": "Dynamic PET blood clearance in naïve CBA/Carl mice", "format": "in vivo", "settings": "i.v. 3 MBq"}, "[4]": {"tested_on": "U87MG and U251MG xenografts", "test": "18F-olaparib biodistribution in U87MG and U251MG tumour xenograft mouse models", "format": "in vivo, Balb/c nude mice", "settings": "both U87MG and U251MG tumours, 60-120 min p.i.", "method": "U87MG and U251MG xenografts were generated in Balb/c nude mice. The xenograft models were administered various doses (0.5, 1.0, 4.0, and 8.0 μg) of ^18F-olaparib by tail vein injection. At 60-120 min post-injection, mice were sacrificed and organs were collected for biodistribution; see FIGS. 27(a) and (b), and FIG. 28(a). […] We predicted that the uptake for the U251MG xenografts would be greater, but in vivo there is no significant difference between the % ID/g for the U251MG or U87MG xenograft tumours.\nA 20-fold excess of cold olaparib was injected via tail vein 60 m prior to 1 μg of ^18F-olaparib via tail vein. The mice were sacrificed at 60-120 min post-injection and organs were harvested."}}, "note": "Several values for one entry are separate records, joined by “and”; a condition that tells them apart may be missing. Identical values can stand only once."}
{"smiles": "O=C(c1cc(Cc2n[nH]c(=O)c3ccccc23)ccc1[18F])N1CCN(C(=O)C2CC2)CC1", "note": "[[^18F]olaparib]", "values": [{"measurement": "Ex vivo biodistribution Blood", "setting": "[1]", "result": "0.11 % ID/g (2×) and 0.14 % ID/g"}, {"measurement": "Ex vivo biodistribution Fat", "setting": "[1]", "result": "0.05 % ID/g and 0.03 % ID/g and 0.26 % ID/g"}, {"measurement": "Ex vivo biodistribution Heart", "setting": "[1]", "result": "0.19 % ID/g and 0.17 % ID/g and 0.34 % ID/g"}, {"measurement": "Ex vivo biodistribution Kidney", "setting": "[1]", "result": "0.59 % ID/g and 0.60 % ID/g and 1.01 % ID/g"}, {"measurement": "Ex vivo biodistribution Large intestine", "setting": "[1]", "result": "0.92 % ID/g and 1.64 % ID/g and 2.99 % ID/g"}, {"measurement": "Ex vivo biodistribution Liver", "setting": "[1]", "result": "2.55 % ID/g and 4.02 % ID/g and 5.27 % ID/g"}, {"measurement": "Ex vivo biodistribution Lung", "setting": "[1]", "result": "0.29 % ID/g and 0.19 % ID/g and 0.34 % ID/g"}, {"measurement": "Ex vivo biodistribution Muscle", "setting": "[1]", "result": "0.20 % ID/g and 0.14 % ID/g and 0.34 % ID/g"}, {"measurement": "Ex vivo biodistribution Pancreas", "setting": "[1]", "result": "0.91 % ID/g and 0.70 % ID/g and 1.30 % ID/g"}, {"measurement": "Ex vivo biodistribution Skin", "setting": "[1]", "result": "0.16 % ID/g and 0.10 % ID/g and 0.27 % ID/g"}, {"measurement": "Ex vivo biodistribution Small intestine", "setting": "[1]", "result": "7.75 % ID/g and 10.33 % ID/g and 17.40 % ID/g"}, {"measurement": "Ex vivo biodistribution Spleen", "setting": "[1]", "result": "2.09 % ID/g and 1.91 % ID/g and 3.68 % ID/g"}, {"measurement": "Ex vivo biodistribution Stomach", "setting": "[1]", "result": "0.46 % ID/g and 0.26 % ID/g and 0.58 % ID/g"}, {"measurement": "Ex vivo biodistribution Bone", "setting": "[2]; + IR (10 Gy)", "result": "0.31 % ID/g and 0.16 % ID/g and 0.19 % ID/g"}, {"measurement": "Ex vivo biodistribution Kidney", "setting": "[2]; + IR (10 Gy)", "result": "4.66 % ID/g and 1.03 % ID/g and 3.67 % ID/g"}, {"measurement": "Ex vivo biodistribution Large intestine", "setting": "[2]; + IR (10 Gy)", "result": "5.21 % ID/g and 3.30 % ID/g and 5.86 % ID/g"}, {"measurement": "Ex vivo biodistribution Liver", "setting": "[2]; + IR (10 Gy)", "result": "9.16 % ID/g and 5.93 % ID/g and 6.67 % ID/g"}, {"measurement": "Ex vivo biodistribution Muscle", "setting": "[2]; + IR (10 Gy)", "result": "0.63 % ID/g and 0.29 % ID/g and 0.48 % ID/g"}, {"measurement": "Ex vivo biodistribution Pancreas", "setting": "[2]; + IR (10 Gy)", "result": "1.89 % ID/g and 1.59 % ID/g and 1.84 % ID/g"}, {"measurement": "Ex vivo biodistribution Skin", "setting": "[2]; + IR (10 Gy)", "result": "0.67 % ID/g and 0.23 % ID/g and 0.33 % ID/g"}, {"measurement": "Ex vivo biodistribution Small intestine", "setting": "[2]; + IR (10 Gy)", "result": "15.58 % ID/g and 9.80 % ID/g and 19.97 % ID/g"}, {"measurement": "Ex vivo biodistribution Spleen", "setting": "[2]; + IR (10 Gy)", "result": "0.77 % ID/g and 0.73 % ID/g and 0.82 % ID/g"}, {"measurement": "Ex vivo biodistribution Stomach", "setting": "[2]; + IR (10 Gy)", "result": "0.38 % ID/g and 0.36 % ID/g and 0.64 % ID/g"}, {"measurement": "Ex vivo biodistribution Bone", "setting": "[2]; + block (excess cold olaparib)", "result": "2.17 % ID/g and 0.47 % ID/g and 1.27 % ID/g"}, {"measurement": "Ex vivo biodistribution Kidney", "setting": "[2]; + block (excess cold olaparib)", "result": "4.16 % ID/g and 1.26 % ID/g and 3.32 % ID/g"}, {"measurement": "Ex vivo biodistribution Large intestine", "setting": "[2]; + block (excess cold olaparib)", "result": "5.00 % ID/g and 2.91 % ID/g and 4.06 % ID/g"}, {"measurement": "Ex vivo biodistribution Liver", "setting": "[2]; + block (excess cold olaparib)", "result": "9.79 % ID/g and 3.62 % ID/g and 6.88 % ID/g"}, {"measurement": "Ex vivo biodistribution Muscle", "setting": "[2]; + block (excess cold olaparib)", "result": "0.88 % ID/g and 0.28 % ID/g and 0.65 % ID/g"}, {"measurement": "Ex vivo biodistribution Pancreas", "setting": "[2]; + block (excess cold olaparib)", "result": "10.22 % ID/g and 4.56 % ID/g and 10.82 % ID/g"}, {"measurement": "Ex vivo biodistribution Skin", "setting": "[2]; + block (excess cold olaparib)", "result": 1.16, "unit": "% ID/g"}, {"measurement": "Ex vivo biodistribution Small intestine", "setting": "[2]; + block (excess cold olaparib)", "result": "46.04 % ID/g and 0.45 % ID/g and 11.70 % ID/g"}, {"measurement": "Ex vivo biodistribution Spleen", "setting": "[2]; + block (excess cold olaparib)", "result": "6.43 % ID/g and 2.80 % ID/g and 7.93 % ID/g"}, {"measurement": "Ex vivo biodistribution Stomach", "setting": "[2]; + block (excess cold olaparib)", "result": "0.94 % ID/g and 0.30 % ID/g and 0.49 % ID/g"}, {"measurement": "Ex vivo biodistribution Bone", "setting": "[2]; tracer alone", "result": "1.46 % ID/g and 0.98 % ID/g and 1.26 % ID/g and 3.08 % ID/g"}, {"measurement": "Ex vivo biodistribution Kidney", "setting": "[2]; tracer alone", "result": "4.32 % ID/g and 2.05 % ID/g and 4.91 % ID/g and 5.22 % ID/g"}, {"measurement": "Ex vivo biodistribution Large intestine", "setting": "[2]; tracer alone", "result": "4.99 % ID/g and 4.50 % ID/g and 4.14 % ID/g and 8.14 % ID/g"}, {"measurement": "Ex vivo biodistribution Liver", "setting": "[2]; tracer alone", "result": "11.78 % ID/g and 5.79 % ID/g and 10.32 % ID/g and 22.63 % ID/g"}, {"measurement": "Ex vivo biodistribution Muscle", "setting": "[2]; tracer alone", "result": "0.65 % ID/g and 0.45 % ID/g and 0.63 % ID/g and 1.44 % ID/g"}, {"measurement": "Ex vivo biodistribution Pancreas", "setting": "[2]; tracer alone", "result": "9.32 % ID/g and 8.12 % ID/g and 7.87 % ID/g and 13.16 % ID/g"}, {"measurement": "Ex vivo biodistribution Skin", "setting": "[2]; tracer alone", "result": "0.02 % ID/g and 0.55 % ID/g and 0.77 % ID/g and 1.54 % ID/g"}, {"measurement": "Ex vivo biodistribution Small intestine", "setting": "[2]; tracer alone", "result": "12.27 % ID/g and 17.29 % ID/g and 11.58 % ID/g and 13.70 % ID/g"}, {"measurement": "Ex vivo biodistribution Spleen", "setting": "[2]; tracer alone", "result": "9.84 % ID/g and 6.13 % ID/g and 8.40 % ID/g and 15.10 % ID/g"}, {"measurement": "Ex vivo biodistribution Stomach", "setting": "[2]; tracer alone", "result": "1.55 % ID/g and 0.63 % ID/g and 1.14 % ID/g and 3.42 % ID/g"}, {"measurement": "tumour uptake (group mean)", "setting": "[2]; excess cold olaparib", "result": "1.00±0.17"}, {"measurement": "tumour uptake (group mean)", "setting": "[2]; tracer alone", "result": "2.59±0.32", "unit": "% ID/g"}, {"measurement": "clearance pattern", "setting": "[3]; dynamic PET", "result": "hepatobilliary"}, {"measurement": "weighted blood half-life", "setting": "[3]", "result": 19.3, "unit": "min"}, {"measurement": "blood clearance fast half-life", "setting": "[3]; biphasic fit, fast phase (44%)", "result": 2.8, "unit": "min"}, {"measurement": "blood clearance slow half-life", "setting": "[3]; biphasic fit, slow phase (56%)", "result": 32.3, "unit": "min"}, {"measurement": "decrease of tumour % ID/g at 8.0 μg compared to 1.0 μg tracer", "setting": "[4]", "result": "> 50", "unit": "%"}]}
